Test results published in patent publication US7642245B2, “Antibacterial compounds having a (pyrrole carboxamide)-(benzamide)-(imidazole carboxamide) motif” (Oscient Pharmaceuticals Corporation, priority 2002, dated 2010).

Assays:
S. aureus ATCC 27660 = experiment: MIC, NCCLS broth microdilution; assay type: cell-based, Staphylococcus aureus; details: B = S. aureus ATCC 27660 (MRSA)
Source text: (§1) In vitro biological activity data were collected for a variety of microorganisms, including Staphylococcus aureus (ATCC 27660, a methicillin resistant strain (MRSA); ATCC 13709, a methicillin sensitive strain (MSSA)), Enterococcus faecalis (ATCC 29212), Bacillus cereus (ATCC 11778), Streptococcus pneumoniae (ATCC 49619), Candida albicans (ATCC 38247), Escherichia coli (ATCC 25922), and Moraxella (now Branhamella) catarrhalis (ATCC 25238).
(§2) The minimal inhibition concentration (MIC) of these compounds was determined using the National Committee for Clinical Laboratory Standards (NCCLS) broth microdilution assay in microtiter plates, as set forth in: (1) the guidelines of the National Committee for Clinical Laboratory Standards (NCCLS) Document M7-A4 (NCCLS, 1997); (2) the guidelines of the National Committee for Clinical Laboratory Standards (NCCLS) Document M11-A4 (NCCLS, 1997); and (3) the guidelines and reference method of the National Committee for Clinical Laboratory Standards (NCCLS) Document M27-T (NCCLS, 1995). For antifungal assays, the method recommended in Murray, P R., 1995 Manual of Clinical Microbiology (ASM Press, Washington, DC.), was employed.

S. aureus ATCC 13709 = experiment: MIC, NCCLS broth microdilution; assay type: cell-based, Staphylococcus aureus; details: A = S. aureus ATCC 13709 (MSSA)
Source text: as §1, §2

[1] = test system: M. catarrhalis (ATCC 25238); experiment: MIC, NCCLS broth microdilution; assay type: cell-based, Moraxella (now Branhamella) catarrhalis; details: H = M. catarrhalis (ATCC 25238)
Source text: as §1, §2

B. cereus ATCC 11778 = experiment: MIC, NCCLS broth microdilution; assay type: cell-based, Bacillus cereus; details: D = B. cereus ATCC 11778
Source text: as §1, §2

C. albicans ATCC 38247 = experiment: MIC, antifungal assay; assay type: cell-based, Candida albicans; details: F = C. albicans ATCC 38247
Source text: as §1, §2

E. faecalis ATCC 29212 = experiment: MIC, NCCLS broth microdilution; assay type: cell-based, Enterococcus faecalis; details: C = E. faecalis ATCC 29212
Source text: as §1, §2

S. pneumoniae ATCC 49619 = experiment: MIC, NCCLS broth microdilution; assay type: cell-based, Streptococcus pneumoniae; details: E = S. pneumoniae ATCC 49619
Source text: as §1, §2

E. coli ATCC 25922 = experiment: MIC, NCCLS broth microdilution; assay type: cell-based, Escherichia coli; details: G = E. coli ATCC 25922
Source text: as §1, §2

SMILES | Minimum Inhibitory Concentration (MIC) (S. aureus ATCC 27660) | Minimum Inhibitory Concentration (MIC) (S. aureus ATCC 13709) | Minimum Inhibitory Concentration (MIC) [1] | Minimum Inhibitory Concentration (MIC) (B. cereus ATCC 11778) | Minimum Inhibitory Concentration (MIC) (C. albicans ATCC 38247) | Minimum Inhibitory Concentration (MIC) (E. faecalis ATCC 29212) | Minimum Inhibitory Concentration (MIC) (S. pneumoniae ATCC 49619) | Minimum Inhibitory Concentration (MIC) (E. coli ATCC 25922)
C[C@@H]1CN(CCNC(=O)c2nc(NC(=O)c3ccc(NC(=O)c4cc(NC(=O)c5cc6ccccc6cn5)cn4C)cc3)cn2C)C[C@H](C)O1 [Compound A-51] | +++ (MIC ≦ 4 μg/mL) | +++ (MIC ≦ 4 μg/mL) | +++ (MIC ≦ 4 μg/mL) | +++ (MIC ≦ 4 μg/mL) | >32 µg/mL | +++ (MIC ≦ 4 μg/mL) | +++ (MIC ≦ 4 μg/mL) | >32 µg/mL
Cn1cc(NC(=O)c2cc3ccccc3cn2)cc1C(=O)Nc1ccc(C(=O)Nc2cn(C)c(C(=O)NCCN3CCC(OC(=O)CCN(CCO)CCO)CC3)n2)cc1 [Compound A-57] | +++ (MIC ≦ 4 μg/mL) | +++ (MIC ≦ 4 μg/mL) | +++ (MIC ≦ 4 μg/mL) | +++ (MIC ≦ 4 μg/mL) | >32 µg/mL | +++ (MIC ≦ 4 μg/mL) | +++ (MIC ≦ 4 μg/mL) | ++ (4 < MIC < 12 μg/mL)
Cn1cc(NC(=O)c2cc3ccccc3cn2)cc1C(=O)Nc1ccc(C(=O)Nc2cn(C)c(C(=O)NCCN3CCCCCC3)n2)cc1 [Compound A-24] | +++ (MIC ≦ 4 μg/mL) | +++ (MIC ≦ 4 μg/mL) | +++ (MIC ≦ 4 μg/mL) | +++ (MIC ≦ 4 μg/mL) | ++ (4 < MIC < 12 μg/mL) | +++ (MIC ≦ 4 μg/mL) | +++ (MIC ≦ 4 μg/mL) | >32 µg/mL
Cn1cc(NC(=O)c2cc3cc4c(cc3cn2)OCO4)cc1C(=O)Nc1ccc(C(=O)Nc2cn(C)c(C(=O)NCCN3CCC(O)CC3)n2)cc1 [Compound A-6] | +++ (MIC ≦ 4 μg/mL) | +++ (MIC ≦ 4 μg/mL) | ++ (4 < MIC < 12 μg/mL) | +++ (MIC ≦ 4 μg/mL) | + (12 ≦ MIC ≦ 32 μg/mL) | +++ (MIC ≦ 4 μg/mL) | +++ (MIC ≦ 4 μg/mL) | + (12 ≦ MIC ≦ 32 μg/mL)
Cn1cc(NC(=O)c2cc3ccccc3cn2)cc1C(=O)Nc1ccc(C(=O)Nc2cn(C)c(C(=O)NCCNCCCCCO)n2)cc1 [Compound A-33] | +++ (MIC ≦ 4 μg/mL) | +++ (MIC ≦ 4 μg/mL) | >32 µg/mL | +++ (MIC ≦ 4 μg/mL) | >32 µg/mL | +++ (MIC ≦ 4 μg/mL) | +++ (MIC ≦ 4 μg/mL) | +++ (MIC ≦ 4 μg/mL)
Cn1cc(NC(=O)c2cc3ccccc3cn2)cc1C(=O)Nc1ccc(C(=O)Nc2cn(C)c(C(=O)NCCN3CCC(F)CC3)n2)cc1 [Compound A-41] | +++ (MIC ≦ 4 μg/mL) | +++ (MIC ≦ 4 μg/mL) | +++ (MIC ≦ 4 μg/mL) | +++ (MIC ≦ 4 μg/mL) | >32 µg/mL | +++ (MIC ≦ 4 μg/mL) | +++ (MIC ≦ 4 μg/mL) | >32 µg/mL
COCC(C)NCCNC(=O)c1nc(NC(=O)c2ccc(NC(=O)c3cc(NC(=O)c4cc5ccccc5cn4)cn3C)cc2)cn1C (stereo not shown) [Compound A-38] | +++ (MIC ≦ 4 μg/mL) | +++ (MIC ≦ 4 μg/mL) | +++ (MIC ≦ 4 μg/mL) | +++ (MIC ≦ 4 μg/mL) | >32 µg/mL | +++ (MIC ≦ 4 μg/mL) | +++ (MIC ≦ 4 μg/mL) | >32 µg/mL
Cn1cc(NC(=O)c2cc3c(Cl)cccc3cn2)cc1C(=O)Nc1ccc(C(=O)Nc2cn(C)c(C(=O)NCCN3CCC(O)CC3)n2)cc1 [Compound A-9] | +++ (MIC ≦ 4 μg/mL) | +++ (MIC ≦ 4 μg/mL) | + (12 ≦ MIC ≦ 32 μg/mL) | +++ (MIC ≦ 4 μg/mL) | ++ (4 < MIC < 12 μg/mL) | +++ (MIC ≦ 4 μg/mL) | +++ (MIC ≦ 4 μg/mL) | ++ (4 < MIC < 12 μg/mL)
CCCCN1CCN(CCNC(=O)c2nc(NC(=O)c3ccc(NC(=O)c4cc(NC(=O)c5cc6ccccc6cn5)cn4C)cc3)cn2C)CC1 [Compound A-14] | +++ (MIC ≦ 4 μg/mL) | +++ (MIC ≦ 4 μg/mL) | +++ (MIC ≦ 4 μg/mL) | +++ (MIC ≦ 4 μg/mL) | >32 µg/mL | +++ (MIC ≦ 4 μg/mL) | +++ (MIC ≦ 4 μg/mL) | >32 µg/mL
Cn1cc(NC(=O)c2cc3ccccc3cn2)cc1C(=O)Nc1ccc(C(=O)Nc2cn(C)c(C(=O)NCCN3CCN(CCOC(=O)CNC(=O)OC(C)(C)C)CC3)n2)cc1 [Compound A-61] | +++ (MIC ≦ 4 μg/mL) | +++ (MIC ≦ 4 μg/mL) | +++ (MIC ≦ 4 μg/mL) | +++ (MIC ≦ 4 μg/mL) | >32 µg/mL | +++ (MIC ≦ 4 μg/mL) | +++ (MIC ≦ 4 μg/mL) | >32 µg/mL
Cn1cc(NC(=O)c2cc3ccccc3cn2)cc1C(=O)Nc1ccc(C(=O)Nc2cn(C)c(C(=O)NCCNCCO)n2)cc1 [Compound A-45] | +++ (MIC ≦ 4 μg/mL) | +++ (MIC ≦ 4 μg/mL) | + (12 ≦ MIC ≦ 32 μg/mL) | +++ (MIC ≦ 4 μg/mL) | >32 µg/mL | +++ (MIC ≦ 4 μg/mL) | +++ (MIC ≦ 4 μg/mL) | >32 µg/mL
CN1CCN(CCNC(=O)c2nc(NC(=O)c3ccc(NC(=O)c4cc(NC(=O)c5cc6ccccc6cn5)cn4C)cc3)cn2C)CC1 [Compound A-12] | +++ (MIC ≦ 4 μg/mL) | +++ (MIC ≦ 4 μg/mL) | +++ (MIC ≦ 4 μg/mL) | +++ (MIC ≦ 4 μg/mL) | >32 µg/mL | +++ (MIC ≦ 4 μg/mL) | +++ (MIC ≦ 4 μg/mL) | >32 µg/mL
Cn1cc(NC(=O)c2cc3ccccc3cn2)cc1C(=O)Nc1ccc(C(=O)Nc2cn(C)c(C(=O)NCCN3CCCC3CO)n2)cc1 (stereo not shown) [Compound A-81] | +++ (MIC ≦ 4 μg/mL) | +++ (MIC ≦ 4 μg/mL) | +++ (MIC ≦ 4 μg/mL) | +++ (MIC ≦ 4 μg/mL) | >32 µg/mL | +++ (MIC ≦ 4 μg/mL) | +++ (MIC ≦ 4 μg/mL) | >32 µg/mL
CCN(CCNC(=O)c1nc(NC(=O)c2ccc(NC(=O)c3cc(NC(=O)c4cc5ccccc5cn4)cn3C)cc2)cn1C)CCOC [Compound A-21] | +++ (MIC ≦ 4 μg/mL) | +++ (MIC ≦ 4 μg/mL) | +++ (MIC ≦ 4 μg/mL) | +++ (MIC ≦ 4 μg/mL) | >32 µg/mL | +++ (MIC ≦ 4 μg/mL) | +++ (MIC ≦ 4 μg/mL) | >32 µg/mL
